Laboratory results reported in PubChem BioAssay (NCI).
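Following 48 hours of exposure in 96-well plates, responses at five concentrations were used to interpolate endpoints linearly. TGI denotes the concentration required for complete inhibition of growth.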

Legend:
Assay in all cases: inhibition of tumour cell growth, NCI panel, 48 h
EKVX NSCLC = tested on: EKVX NSCLC
HCT-15 colon = tested on: HCT-15 colon
HL-60(TB) leukemia = tested on: HL-60(TB) leukemia
HT29 colon = tested on: HT29 colon
KM12 colon = tested on: KM12 colon
MCF7 breast = tested on: MCF7 breast
MDA-MB-435 = tested on: MDA-MB-435
MDA-N = tested on: MDA-N
NCI-H23 lung = tested on: NCI-H23 lung
NCI/ADR-RES ovarian = tested on: NCI/ADR-RES ovarian
OVCAR-3 ovarian = tested on: OVCAR-3 ovarian
OVCAR-4 ovarian = tested on: OVCAR-4 ovarian
RXF 393 renal = tested on: RXF 393 renal
TK-10 renal = tested on: TK-10 renal
NCI-H226 lung = tested on: NCI-H226 lung
OVCAR-8 ovarian = tested on: OVCAR-8 ovarian

| SMILES | TGI (EKVX NSCLC) [µM] | TGI (HCT-15 colon) [µM] | TGI (HL-60(TB) leukemia) [µM] | TGI (HT29 colon) [µM] | TGI (KM12 colon) [µM] | TGI (MCF7 breast) [µM] | TGI (MDA-MB-435) [µM] | TGI (MDA-N) [µM] | TGI (NCI-H23 lung) [µM] | TGI (NCI/ADR-RES ovarian) [µM] | TGI (OVCAR-3 ovarian) [µM] | TGI (OVCAR-4 ovarian) [µM] | TGI (RXF 393 renal) [µM] | TGI (TK-10 renal) [µM] | TGI (NCI-H226 lung) [µM] | TGI (OVCAR-8 ovarian) [µM] |
| --- | --- | --- | --- | --- | --- | --- | --- | --- | --- | --- | --- | --- | --- | --- | --- | --- |
| c1ccc2c(c1)nc1n2CNC1 | > 100 | > 100 | > 100 | > 100 | > 100 | > 100 | > 100 | > 100 | > 100 | > 100 | > 100 | > 100 | > 100 | > 100 |  |  |
| Cc1cc(=O)n2nc(CN3CCCCC3)sc2n1 | > 100 | > 100 | > 100 | > 100 | > 100 | > 100 | > 100 | > 100 | > 100 | > 100 | > 100 | > 100 | > 100 | > 100 | > 100 | > 100 |
| Cc1ccc(NC(=O)c2cccc(OP(=O)(O)Nc3ccc(C)cc3)c2)cc1 | > 100 | > 100 | > 100 | > 100 | > 100 | > 100 | > 100 | > 100 | > 100 | > 100 | > 100 | > 100 | > 100 | > 100 | > 100 | > 100 |
| COc1ccc(CCN2CCN(CCc3ccc(OC)cc3)CC2)cc1 | > 100 | > 100 | > 100 | > 100 | > 100 | > 100 | > 100 | > 100 | > 100 | > 100 | > 100 | > 100 | 95.1 | > 100 | > 100 | > 100 |
| COC1(OC)CC(CO)(CNc2nc(N)nc(Cl)c2/C=N\O)C1 | > 100 | > 100 | > 100 | > 100 | 24.4 | > 100 | > 100 | > 100 | > 100 | > 100 | > 100 | > 100 | > 100 | > 100 | > 100 | > 100 |
| C=C(CC[C@@H](C)[C@H]1CC[C@@]2(C)C3=C(CC[C@]12C)[C@@]1(C)CC[C@H](O)[C@@H](C)C1CC3)C(C)C (some centres undefined) | 2.42 | 2.5 | 8.32 | 1.97 | 2.76 | 2.69 | 2.82 | 2.33 | 2.51 | 3.65 | 3.59 | 3.3 | 2.54 | 2.56 | 5.01 | 3.53 |
| COC(=O)C(NC(=O)c1ccccc1)c1ccco1 (centres undefined) | > 100 | > 100 | > 100 | > 100 | > 100 | > 100 | > 100 | > 100 | > 100 | > 100 | > 100 |  | > 100 | > 100 | > 100 | > 100 |
| C/C=C(/C)C(=O)O[C@H]1C[C@@H]2[C@@H](O)c3occ(C)c3C[C@]2(C)[C@@H](C)C1 | 30.5 | 44.3 | 28.9 | 31.1 | 30.2 | 38.9 | 33 | 41.7 | 33.1 | 28.3 | 31.1 | 32.6 | 28.9 | 33.8 | 29.2 | 36.9 |
| CCCCCCCCCCN(CCCCCCCCCC)C(=O)COc1c2cc(C(C)(C)C)cc1Cc1cc(C(C)(C)C)cc(c1OCC(=O)N(CCCCCCCCCC)CCCCCCCCCC)Cc1cc(C(C)(C)C)cc(c1OCC(=O)N(CCCCCCCCCC)CCCCCCCCCC)Cc1cc(C(C)(C)C)cc(c1OCC(=O)N(CCCCCCCCCC)CCCCCCCCCC)C2 | 25.2 | 21.7 | 30.9 | 12.3 | 24.5 | 6.95 | 25.6 | 24.9 | 9.16 | 29.2 | 29.1 | 22.4 | 22.3 | 33.5 | 36.3 | 16.6 |
| COC(=O)C1C(=O)C=CN([C@H](C)c2ccccc2)[C@@H]1Cc1ccc(OC)c(OCc2ccccc2)c1I (some centres undefined) | > 100 | 27 | 79 | 26.7 | 52 | 49.3 | 47.8 | 34.3 | 40.3 | 42.9 | 28.2 | 79.9 | 25.2 | 60.4 | 32.7 | > 100 |
| O=C1C(Cl)C(c2cccc(Cl)c2)N1c1ccc(-n2c(=S)[nH]c3ccccc3c2=O)cc1 (centres undefined) | > 100 | 14.4 | 52.1 | 43.3 | > 100 | 37.8 | 36.6 | 54.7 | 49.7 | 70.8 | > 100 | 39.6 | 29 | 80.1 | 73.8 | > 100 |
| CNC(=O)N1CN(c2ccccc2)C2(CCN(CCCC3(c4ccc(F)cc4)OCCO3)CC2)C1=O | > 100 | > 100 | > 100 | > 100 | > 100 | > 100 | > 100 | > 100 | > 100 | > 100 | > 100 | > 100 | > 100 | > 100 | > 100 |  |
| CCOC(=O)CN=C1NNS(=O)(=O)c2ccccc21 | > 100 | > 100 | > 100 | > 100 | > 100 | > 100 | > 100 | > 100 | > 100 | > 100 | > 100 | > 100 | > 100 | > 100 | > 100 | > 100 |
| CC1=CC(=O)N(n2c(Cc3ccccc3)n[nH]c2=O)C1=O | > 100 | > 100 |  | > 100 | > 100 | > 100 | > 100 | > 100 | > 100 | > 100 | > 100 | > 100 | > 100 | > 100 | > 100 | > 100 |
